Source: US20050227296A1, “Method for indentifying integrin antagonists” (The General Hospital Corporation, a Massachusetts …, priority 1988, published 2005)

Tests used:
gelatin = experiment: A domain binding to gelatin
[1] = molecular target: CR3 (CD11b/CD18) expressed by normal human neutrophils (Homo sapiens, UniProt P11215); experiment: EAiC3b binding to adherent neutrophils (CR3); format: cell-based
Procedure: Purification and adherence of human neutrophils: Neutrophils were purified as described by Boyum et al. (Scand. J. Clin. Lab. Med. 97(suppl.):77, 1968), resuspended in divalent-cation-free Tris-HCl-saline buffer, pH 7.4 at 5×10^7/ml and kept on ice until used. Neutrophils (2×10^5 cells/well) were allowed to adhere to 96-well plates in Iscov's Modified Medium for one hour at 37° C., in a humidified incubator with 5% CO2. The wells were then washed, and […] of fluoresceinated EAiC3b or EA (at 1.5×10^8/ml) were added in the presence of 3% BSA, in a total volume of […], followed by 15 min incubation at 37° C. with 5% CO2. Wells were then washed and fluorescence quantified as described above.
The ability of A7 to inhibit EAiC3b binding to CR3 (CD11b/CD18) expressed by normal human neutrophils was measured under conditions similar to those used in assessing EAiC3b binding to rA-domain. EAiC3b binding to neutrophils is primarily mediated by CR3, but can also occur in vitro through complement receptor type 1 (CR1). The effect of A7 on EAiC3b binding was tested in nearly isotonic conditions and in the presence of blocking concentrations of a polyclonal anti-CR1 antibody (Ross et al., J. Exp. Med. 158:334, 1983). […] These findings indicate that A7 is the major site in CR3 responsible for its interaction with iC3b.

[2] = test system: biotinylated NIF binding to human neutrophils; experiment: Inhibition of biotinylated NIF binding to neutrophils
Procedure: 100 μg of rNIF were labeled with sulfo-NHS-Biotin as described above. rNIF binding to resting or stimulated human neutrophils (pretreated with 10^−6 M f-met-leu-phe, for 15 minutes at 37° C., then washed) was measured. Increasing amounts of biotinylated rNIF in the absence or presence of 100-fold molar excess of unlabeled rNIF were incubated on ice for one hour with 1×10^6 neutrophils in VBSG^++ in a total volume of […]. Cells were then washed and incubated with phycoerythrin-coupled avidin (Sigma Chemical Co.) under similar conditions, washed again, fixed in 1% paraformaldehyde in PBS, and analyzed using FACScan (Becton Dickinson Co., Mountain View, Calif.). Mean channel fluorescence for each sample was then expressed as a function of the amount of biotinylated rNIF used. Background binding of phycoerythrin-streptavidin alone to neutrophils was subtracted (2.8 fluorescent units). Specific binding was obtained by […], and the values plotted according to Scatchard (Ann. N.Y. Acad. Sci. 51:660, 1949). To determine the effect of unlabeled fluid-phase-r11bA or GST on rNIF binding to neutrophils, each was preincubated at varying concentrations with biotinylated rNIF (20 ng/ml, final concentration) for 15 minutes on ice before addition of the mixture to neutrophils. The effect of mAbs on biotinylated NIF binding to neutrophils was assessed by preincubating the neutrophils with 100 μg/ml of each mAb at 4° C. for 15 minutes before addition of biotinylated NIF (20 ng/ml). The incubation then continued for one hour, followed by processing of cells for FACS analysis as described below.

Substance: r11bA: recombinant human CD11b A domain (Cys128 to Glu321), expressed as GST fusion protein, used as such or after thrombin cleavage
- binding of the A domain to gelatin (gelatin): binds
- concentrations required for inhibition of iC3b binding to leukocytes [1]: micromolar concentrations
- concentration range inhibiting NIF binding to leukocytes [2]: low nM range
- effect of fluid-phase protein on biotinylated rNIF binding to human neutrophils ([2]; dose dependent): abolished
- IC50 ([2]; fluid-phase protein, read-out: half-maximal inhibition of biotinylated rNIF binding to human neutrophils): ~1 nM
